“And” between values parts separate entries of the source, which are not always exact repeats. Equal entries are not always repeated. “Also recorded” adds a separate entry of the source. Where two headings read alike, the source gives them in different places.
What was measured:
[1] = test system: PH5CH8 liver cells; test: High-throughput hepatic de novo lipogenesis (DNL) assay, high content imaging of steatotic phenotype; format: cell-based, human
[2] = test system: HEK293 cells stably transduced with the human OCT3 transporter; test: Cellular oxygen consumption rate (OCR), MitoXpress Xtra; format: cell-based; settings: HEK293 cells expressing human OCT3; for change in respiration / oxygen consumption rate (OCR): compared to DMSO control, 2 hours; for concentration dependence of OCR change: four concentrations
Experimental: Oxygen consumption rate experiments were performed by ZenBio, Inc (RTP, NC). HEK293 cells stably transduced with the human OCT3 transporter were plated in black-walled microclear plates (Greiner-BioOne) at 60,000 cells per well in growth medium. Cells were incubated overnight to allow attachment before growth medium was removed and replaced with 150μL of assay medium containing compound dilutions. Four concentrations of each compound were prepared and transferred to the empty wells. Control wells contained assay medium only or assay medium containing […] (FCCP) at 1μM. Ten μL of MitoXpress Xtra reagent was added to each test well and 100μL of pre-warmed mineral oil was overlaid in each well to create a seal. The plates were immediately read on a FLUOstar Omega (BMG) using dual read Time Resolved Fluorescence (TR-F) for 2 hours, with measurements taken every 2 minutes using 340nm and 650nm as excitation and emission wavelengths respectively. For lifetime analysis, two measurements per well were taken: 1) delay of 30μs, with a window of 30μs; and 2) delay of 70μs with a window of 30μs. Background TRF values were subtracted from all readings. A ratiometric analysis was performed to determine changes in the Lifetime fluorescence signal: Lifetime (μs)[T] = (D2-D1)/ln(W1/W2), where D is delay; W is fluorescence window value at each time point. Lifetime slopes were calculated using each Lifetime measurement over time. Data are presented as mean ± standard error (SE). The differences between the control (DMSO) and compound treated wells were analyzed using the Student’s t-test. A value of p≤0.05 was considered statistically significant. […]

[3] = test system: Phosphorylated AMPK (Thr-172); test: High-throughput phosphorylated AMPK (Thr-172) TR-FRET assay in HepG2 cells; format: cell-based, human; settings: HepG2 TR-FRET dose response between 0.625 and 10 μM, 4 hours; also Western blot
Experimental: Phosphorylated AMPK (Thr-172) TR-FRET Assay Kit was purchased from CisBio (Bedford MA). HepG2 [HB-8065] cells were trypsinized, harvested and counted using Countess II FL automated cell counter (Thermo Fisher Scientific). Cells were then seeded in Poly-D-Lysine coated 96-well black optical plates at a concentration of 10,000 cells per well in 50μL growth medium. After 24-hours, the media was removed and replaced with 50μL of fresh growth media containing compounds. Five concentrations of each compound were prepared, ranging from 10 to 0.625 μM and applied to columns 2–11 of the cell plate. Control wells contained DMSO (column 1-minimum response control) or 500199 (column 12-maximum response control). The final DMSO concentration was 0.45%. Cells were cultured for 4 hours before cells were lysed in 50μL of lysis buffer for 30 minutes at room temperature according to assays protocol. Following lysis, 16μL of lysate was transferred to white 384 well small volume assay plate and 4μL of antibody dyes were added per assay protocol.
Following overnight incubation, quantitation was performed on a PHERAstar (BMG), using the HTRF protocol with an excitation wavelength of 337nm and emission wavelengths of 665nm and 620nm. The ratio between emission spectra (665/620) was assessed for each well individually and averaged for triplicate samples. Data are presented as mean ratio ± SE. The differences between the control (DMSO) and the compound treated wells were analyzed using two-way ANOVA and Dunnett’s post hoc test. A value of p<0.05 was considered to be significant.
Fig 5 Validation of AMPK pathway activation by phenylbenzamide derivatives in HepG2 cells. A) Cells were seeded at 10,000 cells per well 24 hours prior to treating cells with indicated concentration of compound or DMSO (CTL) for 4 hours. 16μL of cell lysate was incubated with HTRF phospho-AMPK detection reagents and fluorescence emission read at 665nm and 620nm using a PHERAstar platereader. The mean and standard deviation of the HTRF Ratio from three replicate wells is shown. The unstimulated (DMSO) and positive controls lysates are shown in green and red respectively.

[4] = test system: Salmonella typhimurium TA1537; settings: Positive Control chemical; concentration not given; without S9
[5] = test system: Salmonella typhimurium TA98; test: Ames assay, strain TA98; settings: Positive Control chemical; concentration not given; without S9
[6] = test system: phospho-AMPK Thr-172 (p-AMPK); test: Western blot of phospho-AMPK Thr-172 in HEK293T cells; format: cell-based, human; settings: 1 and 10μM, negatives re-screened at 5 and 20 μM, 3 hours
Experimental: AMPK is a metabolic sensor that maintains cellular energy supply. As validation of these changes in lipid metabolism and cellular respiration we evaluated phospho-AMPK Thr-172 (p-AMPK) levels by Western blot in HEK293 cells treated with the phenylbenzamide derivatives. Compounds were screened at 1 and 10μM using the known uncouplers niclosamide and FCCP as positive controls (Fig 4A). […] We concluded that compounds that had little effect on oxygen consumption rates also had little effect on phosphorylation of AMPK.

[7] = Metabolic stability in human liver microsomes; format: in vitro ADME
Experimental: (§1) Three experiments were performed with 1) 0.5mg/ml microsomes and 1mM NADPH, 2) 0.5mg/ml microsomes without NADPH and 3) 0.5mg/ml heat inactivated microsomes without NADPH in 100mM phosphate buffer, containing 5mM magnesium chloride. […] At the indicated time points, 50μl samples were removed and stopped by addition of 4 volumes of cold acetonitrile with internal standards, 100nM alprazolam, 200nM labetalol and 2μM ketoprofen. The samples were centrifuged at 3,220 g for 40 minutes and aliquots of 100μl were subsequently diluted with 100μl of ultra-pure water and analyzed by LC/MS/MS using a (Shimadzu corporation) LC system coupled to a Shimadzu Triple Quad 5500 mass spectrometer with an ESI interface. The LC system used a Waters XSelect HSS T3 C18, 2.5μm, 2.1 x 50 mm column eluted with one of two methods using mobile phases A (water, 0.1% formic acid) and B (acetonitrile, 0.1% formic acid). […] The Shimadzu Triple Quad 5500 MS was operated with the following parameters: Ion source: Turbo spray; Ionization mode: ESI; Scan type: MRM; Collision gas: 10 L/min; Curtain gas: 30 L/min; Nebulize gas: 50 L/min; Auxiliary gas: 50 L/min; Temperature: 500°C; Ionspray voltage: +5500 V (positive MRM). All experiments were performed in duplicate. Data were analyzed using Microsoft excel, and peak areas were determined from extracted ion chromatograms.

[8] = Metabolic stability in mouse liver microsomes; format: in vitro ADME; settings: 60 min
Experimental: as §1

[9] = test system: Salmonella typhimurium TA100; settings: Positive Control chemical; concentration not given; without S9
[10] = test system: Salmonella typhimurium TA1535; settings: Positive Control chemical; concentration not given; without S9
[11] = Homo sapiens, PH5CH8 liver cells, 10-point dose response between 1μM and 1.9nM, read-out: IC50 (uM), inhibition of steatotic phenotype in DNL assay
[12] = Homo sapiens, S1 Table. SAR for N-Substituted Phenylbenzamides, read-out: IC50
[13] = S1 Table. SAR for N-Substituted Phenylbenzamides
[14] = Homo sapiens, S1 Table, SAR for N-Substituted Phenylbenzamides, read-out: IC50
[15] = S1 Table, SAR for N-Substituted Phenylbenzamides
[16] = 0.5mg/ml microsomes and 1mM NADPH
[17] = 0.5mg/ml microsomes without NADPH
[18] = heat inactivated microsomes without NADPH
[19] = S1 Table, SAR for N-Substituted Phenylbenzamides, read-out: IC50

O=C(Nc1ccc(Br)cc1Cl)c1cc(Cl)ccc1O [Compound 500832, N-(4-Bromo-2-chlorophenyl)-5-chloro-2-hydroxybenzamide]
IC50 [1, 11]: 0.08 µM | IC50 [1, 12]: 0.0203 µM | Active/Inactive [1, 13]: Active | change in respiration / oxygen consumption rate (OCR) [2]: significant changes | concentration dependence of OCR change [2]: only significantly elevated at 1μM | phosphorylation of AMPK (Figs 5 and 4D) [3]: stimulated phosphorylation of AMPK

COc1ccc2nc3cc(Cl)ccc3c(NCCCNCCCl)c2c1 [ICR-191, reference compound]
Mean Revertant Colony Counts TA-1537 S9- [4]: 72.3 and 73.0

N#CC(C#N)=NNc1ccc(OC(F)(F)F)cc1 [FCCP, carbonyl cyanide-p-trifluoromethoxyphenylhydrazone, reference compound]
change in respiration / oxygen consumption rate (OCR) [2]: increased OCR

O=[N+]([O-])c1ccc2c(c1)Cc1ccccc1-2 [Compound 2-NF, 2-nitrofluorene, reference compound]
Mean Revertant Colony Counts TA98 S9- [5]: 210.0 and 258.7

COC(=O)c1ccc(NC(=O)c2cccc(C(C)(C)C)c2O)c(Cl)c1 [Compound 600489, Methyl 4-(3-tert-butyl-2-hydroxybenzamido)-3-chlorobenzoate]
IC50 [1, 11]: 0.01 µM | IC50 [1, 14]: 0.014 µM | Active/Inactive [1, 15]: Active | change in respiration / oxygen consumption rate (OCR) [2]: no change in respiration; also recorded: no effect on oxygen consumption rate | phosphorylation of AMPK (p-AMPK Thr-172) by Western blot [6]: stimulated phosphorylation of AMPK only at the highest concentration | Remaining Percentage of 60 min (%), Human, Tested Sample [7, 16]: 3.1% | Remaining Percentage of 60 min (%), Human, Negative Control [7, 17]: 3.8% | microsomal stability ([7]; HLM and MLM, 60 min): completely degraded | Remaining Percentage of 60 min (%), Human, Heat-inactivated Control [7, 18]: 66.6% | Remaining Percentage of 60 min (%), Mouse, Tested Sample [8, 16]: 2.7% | Remaining Percentage of 60 min (%), Mouse, Negative Control [8, 17]: 4.1% | Remaining Percentage of 60 min (%), Mouse, Heat-inactivated Control [8, 18]: 57.6%

COc1ccc(O)c(C(=O)Nc2ccc(C(=O)O)cc2C)c1 [Compound 600657, 4-(2-Hydroxy-5-methoxybenzamido)-3-methylbenzoic Acid]
Active/Inactive [1, 15]: Active | change in respiration / oxygen consumption rate (OCR) [2]: no change in respiration; also recorded: did not appear to stimulate phosphorylation of AMPK or increase oxygen consumption rate | phosphorylation of AMPK (p-AMPK Thr-172) by Western blot [6]: no detectable changes in pAMPK levels

COC(=O)c1ccc(NC(=O)c2cc(C(F)(F)F)ccc2O)c(C)c1 [Compound 600655, Methyl 4-(2-hydroxy-5-[trifluoromethyl]benzamido)-3-methylbenzoate]
IC50 [1, 11]: 0.03 µM | IC50 [1, 14]: 0.00025 µM | Active/Inactive [1, 15]: Active | change in respiration / oxygen consumption rate (OCR) [2]: significant changes | concentration dependence of OCR change [2]: dose dependent increase in OCR | phosphorylation of AMPK (Figs 5 and 4D) [3]: stimulated phosphorylation of AMPK

[N-]=[N+]=[N-].[Na+] [SA, Sodium Azide, reference compound]
Mean Revertant Colony Counts TA-100 S9- [9]: 133.7 and 120.0 | Mean Revertant Colony Counts TA-1535 S9- [10]: 103.3

COC(=O)c1ccc(NC(=O)c2cc(C(F)(F)F)ccc2O)c(Br)c1 [Compound 600653, Methyl 4-(2-hydroxy-5-[trifluoromethyl]benzamido)-3-bromobenzoate]
IC50 [1, 11]: 0.27 µM | IC50 [1, 14]: 0.267 µM | Active/Inactive [1, 15]: Active | change in respiration / oxygen consumption rate (OCR) [2]: significant changes | concentration dependence of OCR change [2]: dose dependent increase in OCR | phosphorylation of AMPK (Figs 5 and 4D) [3]: stimulated phosphorylation of AMPK

COC(=O)c1ccc(NC(=O)c2cc(Cl)ccc2O)c(Cl)c1 [Compound 500189, Methyl 3-chloro-4-[(5-chloro-2-hydroxybenzene)amido]benzoate]
Active/Inactive [1, 15]: Inactive

COC(=O)c1ccc(NC(=O)c2cc(C)ccc2O)c(Cl)c1 [Compound 500828, Methyl 3-chloro-4-[(2-hydroxy-5-methylbenzene)amido]benzoate]
Active/Inactive [1, 15]: Active | IC50 [1, 19]: 1.68 µM

CCC/C=C/C/C=C/C=C/C=N/NN=O [Triacsin C, reference compound]
reduced steatosis (steatotic phenotype in DNL assay) ([1]; PH5CH8, assay validation): 92 ± 19%

COC(=O)c1ccc(NC(=O)c2cc(C(F)(F)F)ccc2O)c(Cl)c1 [Compound 500844, Methyl 3-chloro-4-{[2-hydroxy-5-(trifluoromethyl)benzene]amido}benzoate]
Active/Inactive [1, 15]: Active | IC50 [1, 19]: 0.07 µM

N#Cc1ccc(NC(=O)c2cc(Cl)ccc2O)c(Cl)c1 [Compound 500833, 5-Chloro-N-(2-chloro-4-cyanophenyl)-2-hydroxybenzamide]
IC50 [1, 11]: 0.04 µM | IC50 [1, 12]: 0.043 µM | Active/Inactive [1, 13]: Active | change in respiration / oxygen consumption rate (OCR) [2]: significant changes | concentration dependence of OCR change [2]: only significantly elevated at 1μM | phosphorylation of AMPK (Figs 5 and 4D) [3]: stimulated phosphorylation of AMPK

From PMC6201879, “N-substituted phenylbenzamides of the niclosamide chemotype attenuate obesity related changes in high fat diet fed mice” (PLoS ONE, 2018)
